Experimental findings from ChEMBL document CHEMBL5465560, “Selectivity Literature for EUbOPEN Chemogenomic Library” (2024) are described below.

The target of experiment [1] is 1-phosphatidylinositol 3-phosphate 5-kinase (Homo sapiens) (UniProt Q9Y2I7). In words: Selectivity interaction (Kinase panel (KiNativ target engagement assay in Jurkat cells)) EUB0001635a PIKFYVE. In kind it is cell-based. The following applies: Selectivity number of off-targets 0.0, Selectivity number of targets 233.0, Source Knowledge https://www.sciencedirect.com/science/article/pii/S2451945619300674?via%3Dihub, at 1 µM.

Experiment [2] deals with Dual specificity tyrosine-phosphorylation-regulated kinase 1B (Homo sapiens, UniProt Q9Y463). In words: Selectivity interaction (Ambit KINOMEscan and KiNATiv profiling in Jurkat cells) EUB0000090b DYRK1B. The experiment is classed as cell-based. The following applies: at 1 µM.
Experiment [3] addresses Serine/threonine-protein kinase SIK1 (Homo sapiens) (UniProt P57059). As to the kind of experiment: Selectivity interaction (KinomeScan (DiscoverX)) EUB0000655a SIK1. The following applies: at 10 µM.
Experiment [4] deals with T1, Dual specificity mitogen-activated protein kinase kinase 6 (Homo sapiens) (UniProt P52564).
T1 sequence (whole entry): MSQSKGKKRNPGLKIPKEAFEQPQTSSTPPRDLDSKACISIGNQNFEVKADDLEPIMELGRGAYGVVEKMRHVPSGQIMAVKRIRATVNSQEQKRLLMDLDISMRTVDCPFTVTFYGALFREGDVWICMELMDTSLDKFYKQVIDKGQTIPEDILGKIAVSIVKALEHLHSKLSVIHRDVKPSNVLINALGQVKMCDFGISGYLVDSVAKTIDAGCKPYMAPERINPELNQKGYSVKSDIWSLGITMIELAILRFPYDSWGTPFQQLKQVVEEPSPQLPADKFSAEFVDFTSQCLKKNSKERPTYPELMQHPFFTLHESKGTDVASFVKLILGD
As to the kind of experiment: Selectivity interaction (KinomeScan (DiscoverX)) EUB0000655a MAP2K6. The following applies: at 10 µM.

Experiment [5] concerns the target T2, Serine/threonine-protein kinase NLK (Homo sapiens) (UniProt Q9UBE8).
T2 sequence (whole entry): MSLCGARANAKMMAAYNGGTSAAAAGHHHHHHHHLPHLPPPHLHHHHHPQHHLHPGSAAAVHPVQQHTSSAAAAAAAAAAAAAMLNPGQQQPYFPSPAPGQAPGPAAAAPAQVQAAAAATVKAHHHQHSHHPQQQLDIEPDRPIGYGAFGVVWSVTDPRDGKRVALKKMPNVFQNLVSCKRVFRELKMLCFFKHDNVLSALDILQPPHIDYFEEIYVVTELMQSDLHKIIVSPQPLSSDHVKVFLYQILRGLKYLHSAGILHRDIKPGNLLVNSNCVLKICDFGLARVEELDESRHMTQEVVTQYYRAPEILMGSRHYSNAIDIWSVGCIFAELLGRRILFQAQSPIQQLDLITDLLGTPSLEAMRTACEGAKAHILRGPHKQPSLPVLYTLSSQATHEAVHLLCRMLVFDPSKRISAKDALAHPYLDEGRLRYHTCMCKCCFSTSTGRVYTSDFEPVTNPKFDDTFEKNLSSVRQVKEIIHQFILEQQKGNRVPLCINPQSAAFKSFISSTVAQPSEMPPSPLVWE
In words: Selectivity interaction (KinomeScan (DiscoverX)) EUB0001079a NLK. Particulars: at 1 µM.

Experiment [6] has as its target Macrophage-stimulating protein receptor (Homo sapiens, UniProt Q04912). As to the kind of experiment: Selectivity interaction (KinomeScan (DiscoverX)) EUB0001079a MST1R. Particulars: at 1 µM.
In experiment [7] the target is Proto-oncogene tyrosine-protein kinase ROS (Homo sapiens) (UniProt P08922). In words: Selectivity interaction (Kinase panel (Invitrogen)) EUB0000639a ROS1. Particulars: at 200 nM.
The target in experiment [8] is Protein kinase C delta type (Homo sapiens) (UniProt Q05655). As to the kind of experiment: Selectivity interaction (Millipore kinase profiler) EUB0000124b PRKCD. The following applies: at 10 µM.
The target in experiment [9] is High affinity nerve growth factor receptor (Homo sapiens, UniProt P04629). In words: Selectivity interaction (KinomeScan (DiscoverX)) EUB0000695a NTRK1. The following applies: at 100 nM.
In experiment [10] the target is Proto-oncogene tyrosine-protein kinase ROS (Homo sapiens) (UniProt P08922). In words: Selectivity interaction (ProQinase) EUB0000171b ROS1.
The target in experiment [11] is T3, Cyclin-dependent kinase-like 5 (Homo sapiens) (UniProt O76039).
T3 sequence (whole entry): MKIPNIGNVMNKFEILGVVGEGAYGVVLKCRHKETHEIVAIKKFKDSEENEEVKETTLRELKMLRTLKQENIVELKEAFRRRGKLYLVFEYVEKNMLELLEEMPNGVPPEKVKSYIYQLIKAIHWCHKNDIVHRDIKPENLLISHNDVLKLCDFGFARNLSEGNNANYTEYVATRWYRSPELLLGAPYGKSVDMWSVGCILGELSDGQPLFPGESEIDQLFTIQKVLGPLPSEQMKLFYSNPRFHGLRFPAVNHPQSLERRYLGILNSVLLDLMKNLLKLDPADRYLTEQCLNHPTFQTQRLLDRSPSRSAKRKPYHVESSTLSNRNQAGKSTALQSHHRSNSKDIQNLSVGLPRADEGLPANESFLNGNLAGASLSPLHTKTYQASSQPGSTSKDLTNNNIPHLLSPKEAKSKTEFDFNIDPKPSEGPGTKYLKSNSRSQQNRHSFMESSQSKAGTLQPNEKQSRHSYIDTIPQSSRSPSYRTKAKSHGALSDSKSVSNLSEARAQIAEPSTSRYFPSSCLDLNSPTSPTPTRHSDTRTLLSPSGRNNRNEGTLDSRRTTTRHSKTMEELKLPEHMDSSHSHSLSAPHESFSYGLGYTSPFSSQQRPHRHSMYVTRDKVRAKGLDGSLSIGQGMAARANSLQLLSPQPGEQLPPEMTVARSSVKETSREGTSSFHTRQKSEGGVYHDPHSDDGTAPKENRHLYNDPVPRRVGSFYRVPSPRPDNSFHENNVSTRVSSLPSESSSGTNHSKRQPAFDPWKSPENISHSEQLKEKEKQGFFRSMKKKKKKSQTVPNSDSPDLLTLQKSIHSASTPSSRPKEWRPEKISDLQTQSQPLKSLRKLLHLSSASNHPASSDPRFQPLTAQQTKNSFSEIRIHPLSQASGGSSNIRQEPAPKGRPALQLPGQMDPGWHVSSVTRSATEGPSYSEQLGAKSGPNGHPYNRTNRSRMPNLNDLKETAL
As to the kind of experiment: Selectivity interaction (KinomeScan (DiscoverX)) EUB0000092b CDKL5. Particulars: at 10 µM.

Experiment [12] deals with Ephrin type-A receptor 2 (Homo sapiens) (UniProt P29317). As to the kind of experiment: Selectivity interaction (KinomeScan (DiscoverX)) EUB0000045b EPHA2.
The test system of experiment [13] is Phosphatidylinositol 4,5-bisphosphate 3-kinase catalytic subunit alpha isoform (Homo sapiens), P42336 [I800L]. Particulars: at 10 µM.

Molecules are shown by their SMILES.

Sequence of Proto-oncogene tyrosine-protein kinase ROS (Homo sapiens) (P08922 whole entry): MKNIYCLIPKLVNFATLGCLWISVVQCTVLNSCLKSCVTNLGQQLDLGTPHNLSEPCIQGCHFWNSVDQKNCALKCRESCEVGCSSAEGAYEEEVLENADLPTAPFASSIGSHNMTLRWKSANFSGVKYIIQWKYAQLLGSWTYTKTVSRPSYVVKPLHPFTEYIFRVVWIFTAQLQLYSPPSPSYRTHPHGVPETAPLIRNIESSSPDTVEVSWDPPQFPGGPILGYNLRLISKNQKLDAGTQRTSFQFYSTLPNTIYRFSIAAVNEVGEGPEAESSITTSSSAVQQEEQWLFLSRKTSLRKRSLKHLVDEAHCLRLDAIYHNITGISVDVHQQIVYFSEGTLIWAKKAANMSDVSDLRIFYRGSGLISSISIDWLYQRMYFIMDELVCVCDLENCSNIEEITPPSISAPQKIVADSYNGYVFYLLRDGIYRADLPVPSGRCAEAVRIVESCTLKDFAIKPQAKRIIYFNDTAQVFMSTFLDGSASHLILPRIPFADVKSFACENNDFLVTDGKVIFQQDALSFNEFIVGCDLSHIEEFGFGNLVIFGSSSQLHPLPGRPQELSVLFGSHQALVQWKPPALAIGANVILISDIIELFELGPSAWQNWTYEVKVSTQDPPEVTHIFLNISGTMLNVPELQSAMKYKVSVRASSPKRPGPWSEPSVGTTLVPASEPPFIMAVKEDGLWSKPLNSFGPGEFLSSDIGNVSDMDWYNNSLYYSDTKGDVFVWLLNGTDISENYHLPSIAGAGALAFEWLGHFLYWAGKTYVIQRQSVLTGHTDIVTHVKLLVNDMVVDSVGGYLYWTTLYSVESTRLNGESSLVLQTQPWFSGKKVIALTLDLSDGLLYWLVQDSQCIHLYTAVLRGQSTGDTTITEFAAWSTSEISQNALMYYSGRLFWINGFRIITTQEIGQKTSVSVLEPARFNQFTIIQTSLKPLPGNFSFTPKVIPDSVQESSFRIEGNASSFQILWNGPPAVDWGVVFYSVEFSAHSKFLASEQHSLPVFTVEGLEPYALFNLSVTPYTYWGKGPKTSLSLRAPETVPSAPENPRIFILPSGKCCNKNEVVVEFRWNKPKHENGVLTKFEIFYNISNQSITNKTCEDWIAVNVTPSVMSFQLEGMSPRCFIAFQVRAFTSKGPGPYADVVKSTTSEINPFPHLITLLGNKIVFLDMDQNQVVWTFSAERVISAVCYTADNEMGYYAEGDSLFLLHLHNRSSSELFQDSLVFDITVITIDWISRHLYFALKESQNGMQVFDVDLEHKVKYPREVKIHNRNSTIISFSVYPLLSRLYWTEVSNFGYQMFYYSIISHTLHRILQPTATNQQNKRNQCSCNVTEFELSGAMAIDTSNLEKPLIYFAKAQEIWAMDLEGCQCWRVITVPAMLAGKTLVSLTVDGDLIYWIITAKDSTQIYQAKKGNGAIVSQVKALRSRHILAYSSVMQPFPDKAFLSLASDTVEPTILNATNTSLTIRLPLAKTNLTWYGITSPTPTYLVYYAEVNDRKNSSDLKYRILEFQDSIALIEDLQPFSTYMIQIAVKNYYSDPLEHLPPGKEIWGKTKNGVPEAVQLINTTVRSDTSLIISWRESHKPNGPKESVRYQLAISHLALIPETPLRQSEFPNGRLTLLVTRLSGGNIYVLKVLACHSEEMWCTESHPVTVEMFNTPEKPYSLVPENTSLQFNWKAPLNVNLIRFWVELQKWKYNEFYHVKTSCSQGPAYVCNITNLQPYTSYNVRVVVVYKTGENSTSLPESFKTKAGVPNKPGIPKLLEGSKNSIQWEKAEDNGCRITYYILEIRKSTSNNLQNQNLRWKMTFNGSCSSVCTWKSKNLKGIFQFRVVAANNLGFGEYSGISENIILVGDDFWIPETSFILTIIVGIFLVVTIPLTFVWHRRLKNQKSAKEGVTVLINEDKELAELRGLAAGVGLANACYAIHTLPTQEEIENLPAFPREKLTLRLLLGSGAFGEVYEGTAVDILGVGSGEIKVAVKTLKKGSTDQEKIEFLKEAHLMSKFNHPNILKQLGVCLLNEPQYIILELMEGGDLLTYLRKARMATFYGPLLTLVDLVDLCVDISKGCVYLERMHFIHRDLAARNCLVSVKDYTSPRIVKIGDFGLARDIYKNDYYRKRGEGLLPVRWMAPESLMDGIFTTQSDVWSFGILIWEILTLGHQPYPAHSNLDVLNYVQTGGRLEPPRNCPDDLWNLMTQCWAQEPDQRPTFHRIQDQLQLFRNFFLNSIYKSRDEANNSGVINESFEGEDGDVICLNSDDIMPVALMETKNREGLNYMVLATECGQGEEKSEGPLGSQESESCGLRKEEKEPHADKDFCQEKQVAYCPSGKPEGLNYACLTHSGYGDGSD
Sequence of Ephrin type-A receptor 2 (Homo sapiens) (P29317 whole entry, canonical isoform): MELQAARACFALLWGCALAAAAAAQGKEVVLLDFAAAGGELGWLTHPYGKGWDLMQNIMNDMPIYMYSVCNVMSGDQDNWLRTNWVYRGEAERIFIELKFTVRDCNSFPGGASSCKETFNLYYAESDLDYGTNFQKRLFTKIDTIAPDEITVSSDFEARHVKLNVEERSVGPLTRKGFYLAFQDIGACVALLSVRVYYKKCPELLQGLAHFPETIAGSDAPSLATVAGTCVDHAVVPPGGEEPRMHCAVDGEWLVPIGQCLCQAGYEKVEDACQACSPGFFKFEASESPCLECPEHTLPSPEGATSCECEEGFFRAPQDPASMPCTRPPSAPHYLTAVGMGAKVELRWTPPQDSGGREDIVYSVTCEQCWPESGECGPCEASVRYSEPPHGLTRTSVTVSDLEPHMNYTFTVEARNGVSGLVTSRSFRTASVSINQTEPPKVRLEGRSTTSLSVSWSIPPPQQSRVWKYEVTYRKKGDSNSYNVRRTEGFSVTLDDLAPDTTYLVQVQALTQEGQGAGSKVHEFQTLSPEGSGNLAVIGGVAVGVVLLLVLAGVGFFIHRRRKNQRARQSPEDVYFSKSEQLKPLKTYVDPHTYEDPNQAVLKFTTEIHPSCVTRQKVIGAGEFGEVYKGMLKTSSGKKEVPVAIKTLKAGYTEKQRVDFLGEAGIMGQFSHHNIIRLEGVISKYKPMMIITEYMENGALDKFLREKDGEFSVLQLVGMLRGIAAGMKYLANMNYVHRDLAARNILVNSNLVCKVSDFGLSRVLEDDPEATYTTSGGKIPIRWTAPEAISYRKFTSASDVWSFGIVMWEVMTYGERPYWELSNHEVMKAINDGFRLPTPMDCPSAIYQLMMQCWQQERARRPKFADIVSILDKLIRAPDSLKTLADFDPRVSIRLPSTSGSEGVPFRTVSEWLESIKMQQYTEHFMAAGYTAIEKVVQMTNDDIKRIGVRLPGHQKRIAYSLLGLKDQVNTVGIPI
Sequence of High affinity nerve growth factor receptor (P04629 33-796 limits assumed): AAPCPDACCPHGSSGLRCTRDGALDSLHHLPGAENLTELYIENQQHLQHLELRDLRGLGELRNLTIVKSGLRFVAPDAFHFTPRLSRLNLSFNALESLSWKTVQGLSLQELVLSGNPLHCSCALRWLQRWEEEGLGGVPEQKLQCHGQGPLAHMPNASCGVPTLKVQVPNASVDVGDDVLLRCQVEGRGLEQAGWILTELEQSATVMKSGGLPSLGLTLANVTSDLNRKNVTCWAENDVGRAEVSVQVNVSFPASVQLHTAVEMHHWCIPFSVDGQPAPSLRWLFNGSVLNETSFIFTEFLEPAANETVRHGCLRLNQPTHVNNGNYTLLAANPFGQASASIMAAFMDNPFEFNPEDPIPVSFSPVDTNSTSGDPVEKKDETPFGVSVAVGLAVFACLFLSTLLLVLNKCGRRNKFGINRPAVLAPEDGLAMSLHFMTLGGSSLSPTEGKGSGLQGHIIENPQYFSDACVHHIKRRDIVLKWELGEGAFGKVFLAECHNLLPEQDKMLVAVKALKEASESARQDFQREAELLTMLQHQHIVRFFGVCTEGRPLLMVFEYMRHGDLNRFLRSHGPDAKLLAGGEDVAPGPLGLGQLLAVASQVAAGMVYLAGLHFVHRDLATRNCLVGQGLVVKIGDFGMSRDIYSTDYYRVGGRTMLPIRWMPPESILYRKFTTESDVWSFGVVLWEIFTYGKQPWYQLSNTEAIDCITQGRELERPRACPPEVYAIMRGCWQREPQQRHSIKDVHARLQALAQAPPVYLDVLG
Sequence of Dual specificity tyrosine-phosphorylation-regulated kinase 1B (Q9Y463 whole entry, looked up): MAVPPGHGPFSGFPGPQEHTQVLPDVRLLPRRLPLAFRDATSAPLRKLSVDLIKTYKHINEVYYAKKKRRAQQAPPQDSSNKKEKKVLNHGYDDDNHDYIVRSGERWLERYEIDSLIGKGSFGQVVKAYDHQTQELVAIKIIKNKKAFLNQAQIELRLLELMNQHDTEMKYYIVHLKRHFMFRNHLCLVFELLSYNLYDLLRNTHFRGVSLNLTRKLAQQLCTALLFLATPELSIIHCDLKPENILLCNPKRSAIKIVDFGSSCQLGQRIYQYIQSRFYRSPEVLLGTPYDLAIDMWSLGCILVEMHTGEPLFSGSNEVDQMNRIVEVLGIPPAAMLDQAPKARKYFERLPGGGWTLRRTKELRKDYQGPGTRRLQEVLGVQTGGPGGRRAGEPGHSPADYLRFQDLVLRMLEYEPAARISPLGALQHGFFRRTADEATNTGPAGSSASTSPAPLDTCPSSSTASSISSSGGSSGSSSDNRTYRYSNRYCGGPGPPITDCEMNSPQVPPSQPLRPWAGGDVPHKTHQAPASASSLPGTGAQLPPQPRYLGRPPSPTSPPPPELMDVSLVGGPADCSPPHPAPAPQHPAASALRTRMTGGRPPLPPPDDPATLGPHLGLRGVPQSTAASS

For the compound `C=CC(=O)Nc1ccc(C(=O)Nc2[nH]nc3c2CN(C(=O)N[C@H](CN(C)C)c2ccccc2)C3(C)C)cc1`, the % of engagement in experiment [1] was -3.5%.

Regarding `CN(C)C/C=C/C(=O)Nc1ccc(C(=O)N2CCCC(Nc3ncc(Cl)c(-c4c[nH]c5ccccc45)n3)C2)cc1` (stereo not given), in experiment [2], the % of control was 6.1%.

As for `CN(C)CCOc1ccc(-c2nc(-c3ccncc3)c(-c3ccc4c(c3)CC/C4=N\O)[nH]2)cc1`, the % of control in [3] and in experiment [4] was 100% each time.

In the case of `Nc1cnc(N2CCc3cc(S(=O)(=O)Nc4c(F)cc(Cl)cc4F)cc(N4CCCC4=O)c32)nc1` [TP-020n], the % of control in experiment [5] came out at 100%; in [6] it was 98%.

In experiment [7], `CC[C@@H]1[C@H](F)C(=O)N[C@@H]1COc1nccc2cc(C(N)=O)c(OC)cc12` [ZIMLOVISERTIB] came in with a % of inhibition of 18.1%.

`CC(=O)Nc1cccc(-n2c(=O)n(C3CC3)c(=O)c3c(Nc4ccc(I)cc4F)n(C)c(=O)c(C)c32)c1`: the % of control in [8] is 97%.

In turn, `Cc1cc(F)c(C(=O)Nc2cccc(-c3nncn3C(C)C)n2)cc1-n1cnc(C2CC2)c1` showed a % of control in experiment [9] of 79%.

Consider `C=CC(=O)Nc1cccc(C(=O)Nc2ccc(Nc3cc(-c4[nH]c(SC)nc4C)ccn3)cc2)c1`, for which the % of control turned out to be 87% in experiment [10] (at 1 µM) and 74% in [10] (at 5 µM).

With `CCC(=O)N1CCN(c2ccc(-n3c(=O)ccc4cnc5ccc(-c6cnc7ccccc7c6)cc5c43)cc2C(F)(F)F)CC1`, the % of control in experiment [11] turned out to be 100%.

As for `C=CC(=O)Nc1cc(-n2c(=O)ccc3cnc4ccc(-c5ccc(NS(C)(=O)=O)cc5)cc4c32)ccc1C`, the % of control in experiment [12] (at 1 µM) and in experiment [12] (at 10 µM) was 100% in each case.

`COCC(=O)NC/C=C/c1ccc2ncnc(Nc3ccc(Oc4ccc(C)nc4)c(C)c3)c2c1` [CP-724714] came in with a % of control in experiment [13] of 100%.
